Reference: patent US20150337013A1, “NOVEL ANTIBACTERIAL AGENTS FOR THE TREATMENT OF GRAM POSITIVE INFECTIONS” (priority 2008, published 2015)
Several values for one entry are separate records, joined by “and”; a condition that tells them apart may be missing. Identical values can stand only once. Like-named read-outs stand apart in the source and are kept apart here.

Columns and labels:
[1] = system: Enterococcus faecalis EFS.201 (ATCC 49452); assay type: cell-based
How it was run: (§1)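 Broth microdilution per CLSI M7-A7 in Mueller Hinton broth supplemented with 50 mg/L calcium; 2-fold compound dilutions, 5×10^5 bacteria per well, DMSO ≤1% final, 18-20 h at 37° C with aeration (200 rpm). MIC (μg/mL) = lowest concentration with no visible turbidity (growth: visible turbidity or OD600 ≥0.1).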

[2] = system: Enterococcus faecalis EFS.312, Daptomycin resistant mutant (EFA); assay type: cell-based; conditions: MHBc with 50 mg/L calcium, 18-20 hours at 37° C.
How it was run: as §1

[3] = system: Enterococcus faecium EFM.14 (ATCC 6569); assay type: cell-based
How it was run: as §1

[4] = system: Enterococcus faecium EFM.384, Daptomycin resistant mutant (14-A); assay type: cell-based; conditions: MHBc with 50 mg/L calcium, 18-20 hours at 37° C.
How it was run: as §1

[5] = system: Staphylococcus aureus SAU.278, Daptomycin resistant mutant (D10); assay type: cell-based; conditions: MHBc with 50 mg/L calcium, 18-20 hours at 37° C.
How it was run: as §1

[6] = system: Staphylococcus aureus SAU.399 (ATCC 43300), Methicillin and Oxacillin Resistant; assay type: cell-based
How it was run: as §1

[7] = system: Staphylococcus aureus SAU.42 (ATCC 29213); assay type: cell-based
How it was run: as §1

[8] = system: Clostridium difficile
[9] = MHBc with 50 mg/L calcium, 18-20 hours at 37° C.

Structure (SMILES)	Efs201 MIC [1, 9] [µg/mL]	Efs312 MIC [2]	Efm14 MIC [3, 9]	Efm384 MIC [4] [µg/mL]	Sa278 MIC [5] [µg/mL]	Sa399 MIC [6, 9] [µg/mL]	Sa42 MIC [7, 9] [µg/mL]	C. diff MIC90 [8] [µg/mL]	Efs201 MIC ([1]; ATCC 49452) [µg/mL]	Efm14 MIC ([3]; ATCC 6569) [µg/mL]	Sa399 MIC ([6]; ATCC 43300) [µg/mL]	Sa42 MIC ([7]; ATCC 29213) [µg/mL]
C[C@H](CC(=O)O)[C@@H]1NC(=O)[C@@H](CO)NC(=O)CNC(=O)[C@H](CC(=O)O)NC(=O)[C@@H](C)NC(=O)[C@H](CC(=O)O)NC(=O)[C@H](CCCN)NC(=O)CNC(=O)[C@@H](NC(=O)[C@H](CC(=O)O)NC(=O)[C@@H](CC(N)=O)NC(=O)[C@H](Cc2c[nH]c3ccccc23)NC(=O)c2ccc(-c3ccc(-c4ccccc4)cc3)s2)[C@@H](C)OC(=O)[C@H](CC(=O)c2ccccc2N)NC1=O [Compound 52, N-[5-(biphenyl-4-yl)thiophene-2-carbonyl]-L-tryptophyl-D-asparaginyl-L-α-aspartyl-L-threonylglycyl-L-ornithyl-L-α-aspartyl-D-alanyl-L-α-aspartylglycyl-D-seryl-(3R)-3-methyl-L-α-glutamyl-(αS)-α,2-diamino-γ-oxobenzenebutanoic acid (13→4)-lactone]	0.5	8 µg/mL and 16 µg/mL	1 µg/mL and 0.5 µg/mL	4	0.5	0.25	0.25	2	–	–	–	–
CCCCCCCCCCCCCCCOc1ccc(C(=O)N[C@@H](Cc2c[nH]c3ccccc23)C(=O)N[C@H](CC(N)=O)C(=O)N[C@@H](CC(=O)O)C(=O)N[C@@H]2C(=O)NCC(=O)N[C@@H](CCCN)C(=O)N[C@@H](CC(=O)O)C(=O)N[C@H](C)C(=O)N[C@@H](CC(=O)O)C(=O)NCC(=O)N[C@H](CO)C(=O)N[C@@H]([C@H](C)CC(=O)O)C(=O)N[C@@H](CC(=O)c3ccccc3N)C(=O)O[C@@H]2C)cc1 [Compound 40]	4.0	8 µg/mL	32.0 µg/mL	32	16.00	4.000	4.00	32	–	–	–	–
CCCCCCCc1ccc(NC(=O)N[C@@H](Cc2c[nH]c3ccccc23)C(=O)N[C@H](CC(N)=O)C(=O)N[C@@H](CC(=O)O)C(=O)N[C@@H]2C(=O)NCC(=O)N[C@@H](CCCN)C(=O)N[C@@H](CC(=O)O)C(=O)N[C@H](C)C(=O)N[C@@H](CC(=O)O)C(=O)NCC(=O)N[C@H](CO)C(=O)N[C@@H]([C@H](C)CC(=O)O)C(=O)N[C@@H](CC(=O)c3ccccc3N)C(=O)O[C@@H]2C)cc1 [Compound 51]	–	8 µg/mL	–	4	1	–	–	0.5	0.25	0.5	0.125	0.125
CCCCCCCCCCCCCC(=O)N[C@@H](Cc1c[nH]c2ccccc12)C(=O)N[C@H](CC(N)=O)C(=O)N[C@@H](CC(=O)O)C(=O)N[C@@H]1C(=O)NCC(=O)N[C@@H](CCCN)C(=O)N[C@@H](CC(=O)O)C(=O)N[C@H](C)C(=O)N[C@@H](CC(=O)O)C(=O)NCC(=O)N[C@H](CO)C(=O)N[C@@H]([C@H](C)CC(=O)O)C(=O)N[C@@H](CC(=O)c2ccccc2N)C(=O)O[C@@H]1C [Compound 6]	–	4 µg/mL	–	4	2	–	–	16	0.25	0.5	0.25	1
C[C@H](CC(=O)O)[C@@H]1NC(=O)[C@@H](CO)NC(=O)CNC(=O)[C@H](CC(=O)O)NC(=O)[C@@H](C)NC(=O)[C@H](CC(=O)O)NC(=O)[C@H](CCCN)NC(=O)CNC(=O)[C@@H](NC(=O)[C@H](CC(=O)O)NC(=O)[C@@H](CC(N)=O)NC(=O)[C@H](Cc2c[nH]c3ccccc23)NC(=O)/C=C/c2ccc(-c3ccccc3)cc2)[C@@H](C)OC(=O)[C@H](CC(=O)c2ccccc2N)NC1=O [Compound 71]	8	>32 µg/mL	16 µg/mL	>32	32	2	2	16	–	–	–	–
C[C@H](CC(=O)O)[C@@H]1NC(=O)[C@@H](CO)NC(=O)CNC(=O)[C@H](CC(=O)O)NC(=O)[C@@H](C)NC(=O)[C@H](CC(=O)O)NC(=O)[C@H](CCCN)NC(=O)CNC(=O)[C@@H](NC(=O)[C@H](CC(=O)O)NC(=O)[C@@H](CC(N)=O)NC(=O)[C@H](Cc2c[nH]c3ccccc23)NC(=O)C2CCC(c3ccc(Cl)cc3)CC2)[C@@H](C)OC(=O)[C@H](CC(=O)c2ccccc2N)NC1=O (stereo partly drawn) [Compound 67]	–	>32 µg/mL	–	>32	4	–	–	4	4	8	4	0.5
CC(C)CCCCCCCCCCC(=O)N[C@@H](Cc1c[nH]c2ccccc12)C(=O)N[C@H](CC(N)=O)C(=O)N[C@@H](CC(=O)O)C(=O)N[C@@H]1C(=O)NCC(=O)N[C@@H](CCCN)C(=O)N[C@@H](CC(=O)O)C(=O)N[C@H](C)C(=O)N[C@@H](CC(=O)O)C(=O)NCC(=O)N[C@H](CO)C(=O)N[C@@H]([C@H](C)CC(=O)O)C(=O)N[C@@H](CC(=O)c2ccccc2N)C(=O)O[C@@H]1C [Compound 11]	–	16 µg/mL	–	4	0.5	–	–	1	1	1	0.25	0.125
CC(C)CCCCCCCCCC(=O)N[C@@H](Cc1c[nH]c2ccccc12)C(=O)N[C@H](CC(N)=O)C(=O)N[C@@H](CC(=O)O)C(=O)N[C@@H]1C(=O)NCC(=O)N[C@@H](CCCN)C(=O)N[C@@H](CC(=O)O)C(=O)N[C@H](C)C(=O)N[C@@H](CC(=O)O)C(=O)NCC(=O)N[C@H](CO)C(=O)N[C@@H]([C@H](C)CC(=O)O)C(=O)N[C@@H](CC(=O)c2ccccc2N)C(=O)O[C@@H]1C [Compound 10]	–	>32 µg/mL	–	4	1	–	–	1	0.13	1	0.25	0.25
CCCOc1ccc(-c2ccc(C(=O)N[C@@H](Cc3c[nH]c4ccccc34)C(=O)N[C@H](CC(N)=O)C(=O)N[C@@H](CC(=O)O)C(=O)N[C@@H]3C(=O)NCC(=O)N[C@@H](CCCN)C(=O)N[C@@H](CC(=O)O)C(=O)N[C@H](C)C(=O)N[C@@H](CC(=O)O)C(=O)NCC(=O)N[C@H](CO)C(=O)N[C@@H]([C@H](C)CC(=O)O)C(=O)N[C@@H](CC(=O)c4ccccc4N)C(=O)O[C@@H]3C)cc2)cc1 [Compound 59]	–	>32 µg/mL	–	32	4	–	–	4	4	4	0.5	0.5
C[C@H](CC(=O)O)[C@@H]1NC(=O)[C@@H](CO)NC(=O)CNC(=O)[C@H](CC(=O)O)NC(=O)[C@@H](C)NC(=O)[C@H](CC(=O)O)NC(=O)[C@H](CCCN)NC(=O)CNC(=O)[C@@H](NC(=O)[C@H](CC(=O)O)NC(=O)[C@@H](CC(N)=O)NC(=O)[C@H](Cc2c[nH]c3ccccc23)NC(=O)CCCCCC2CCCCC2)[C@@H](C)OC(=O)[C@H](CC(=O)c2ccccc2N)NC1=O [Compound 26]	–	>32 µg/mL	–	16	2	–	–	2	1	2	0.5	1
C[C@H](CC(=O)O)[C@@H]1NC(=O)[C@@H](CO)NC(=O)CNC(=O)[C@H](CC(=O)O)NC(=O)[C@@H](C)NC(=O)[C@H](CC(=O)O)NC(=O)[C@H](CCCN)NC(=O)CNC(=O)[C@@H](NC(=O)[C@H](CC(=O)O)NC(=O)[C@@H](CC(N)=O)NC(=O)[C@H](Cc2c[nH]c3ccccc23)NC(=O)Cc2ccc(-c3ccccc3)cc2)[C@@H](C)OC(=O)[C@H](CC(=O)c2ccccc2N)NC1=O [Compound 66]	>32	>32 µg/mL	>32 µg/mL	>32	>32	8	8	8	–	–	–	–
C[C@H](CC(=O)O)[C@@H]1NC(=O)[C@@H](CO)NC(=O)CNC(=O)[C@H](CC(=O)O)NC(=O)[C@@H](C)NC(=O)[C@H](CC(=O)O)NC(=O)[C@H](CCCN)NC(=O)CNC(=O)[C@@H](NC(=O)[C@H](CC(=O)O)NC(=O)[C@@H](CC(N)=O)NC(=O)[C@H](Cc2c[nH]c3ccccc23)NC(=O)CCCCC2CCCCC2)[C@@H](C)OC(=O)[C@H](CC(=O)c2ccccc2N)NC1=O [Compound 24]	–	>32 µg/mL	–	32	8	–	–	4	2	4	1	1
